# “Also recorded” adds a separate entry of the source.
# Key:
# [1] = Solubility of the fluorinated product in fluorocarbons; assay type: physicochemical
# [2] = neat perfluorocarbon; cited from earlier work
# [3] = Stability of [18F]CF3(CF2)7(CH2)3F in water, with and without sonication; assay type: physicochemical
# Procedure: [^18F]CF3(CF2)7(CH2)3F (125 MBq) in FC-72 (2 mL) was separated into 4 equal samples, and water (0.5 mL) was added to each with stirring. At 0.5, 1, 2 and 4 h, the water layer was removed and the amount of activity measured. In addition, [^18F]CF3(CF2)7(CH2)3F (28 MBq) in FC-72 (130 μL) and DI water (2 mL) was suspended in ice and sonicated using a Branson, Digital S450D Sonifier (Emerson Canada, Markham, ON, Canada) for 10 min at 10% amplitude, using 1 second on-1 second off pulses. The samples were centrifuged and the activity in the aqueous layers were measured using a gamma counter.
# The focus shifted to using precursors with a propyl spacer in an attempt to minimize the influence of the electron withdrawing fluorine groups. The mesylate CF3(CF2)7(CH2)3OMs and tosylate CF3(CF2)7(CH2)3OTs were prepared and labelled with [^18F]F^−. The tosylate produced the desired compound (RCY 15%±3; n=5) when the reaction was heated to 75° C. for 30 min. While the overall yield was modest, the product could be easily isolated and separated from impurities by liquid-liquid extraction using FC-72 and water.
smiles,measurement,setting,value
FCCC(F)(F)C(F)(F)C(F)(F)C(F)(F)C(F)(F)C(F)(F)C(F)(F)C(F)(F)F [CF3(CF2)7(CH2)2F],Solubility in FCs,[1],good solubility in FCs
"FC(F)(F)C(F)(F)C(F)(F)C(F)(F)C(F)(F)C(F)(F)F [PFH, perfluorohexane]",Water Solubility 25° C.,[2],Insoluble
same,Water Solubility 25° C. (bound),[2],(<25 ppm)
"FC(F)(F)C(F)(F)C(F)(F)C(F)(F)C(F)(F)C(F)(F)C(F)(F)C(F)(F)Br [PFOB, perfluorooctylbromide]",Water Solubility 25° C.,[2],Insoluble
FC(F)(F)C(F)(F)C(F)(F)C(F)(F)C(F)(F)C(F)(F)C(F)(F)C(F)(F)CCC[18F] [[^18F]CF3(CF2)7(CH2)3F],Activity in the aqueous layer post-sonication,"[3]; FC-72 and DI water, sonicated without stabilizing surfactants",no activity was found in the aqueous layer
same,Free [18F]F− by radioHPLC and radioTLC,[3]; FC-72 solution extracted with water periodically over 4 h,no evidence of free [^18F]F^−
same,Loss of fluoride in vitro / in solution,[3]; left in solution over the timeframe of the imaging studies,no signs of loss of fluoride; also recorded: stable with respect to loss of fluoride in vitro
